Consider ten compounds from US12195482B1 (Arcus Biosciences, Inc., priority 2022, dated 2025).

A value given as a limit tells only on which side of the number the result lay.

One experiment addresses T1, recombinant human TYRO3 (Homo sapiens, UniProt Q06418).
T1 construct: purchased Invitrogen
T1 sequence (Q06418 41-890): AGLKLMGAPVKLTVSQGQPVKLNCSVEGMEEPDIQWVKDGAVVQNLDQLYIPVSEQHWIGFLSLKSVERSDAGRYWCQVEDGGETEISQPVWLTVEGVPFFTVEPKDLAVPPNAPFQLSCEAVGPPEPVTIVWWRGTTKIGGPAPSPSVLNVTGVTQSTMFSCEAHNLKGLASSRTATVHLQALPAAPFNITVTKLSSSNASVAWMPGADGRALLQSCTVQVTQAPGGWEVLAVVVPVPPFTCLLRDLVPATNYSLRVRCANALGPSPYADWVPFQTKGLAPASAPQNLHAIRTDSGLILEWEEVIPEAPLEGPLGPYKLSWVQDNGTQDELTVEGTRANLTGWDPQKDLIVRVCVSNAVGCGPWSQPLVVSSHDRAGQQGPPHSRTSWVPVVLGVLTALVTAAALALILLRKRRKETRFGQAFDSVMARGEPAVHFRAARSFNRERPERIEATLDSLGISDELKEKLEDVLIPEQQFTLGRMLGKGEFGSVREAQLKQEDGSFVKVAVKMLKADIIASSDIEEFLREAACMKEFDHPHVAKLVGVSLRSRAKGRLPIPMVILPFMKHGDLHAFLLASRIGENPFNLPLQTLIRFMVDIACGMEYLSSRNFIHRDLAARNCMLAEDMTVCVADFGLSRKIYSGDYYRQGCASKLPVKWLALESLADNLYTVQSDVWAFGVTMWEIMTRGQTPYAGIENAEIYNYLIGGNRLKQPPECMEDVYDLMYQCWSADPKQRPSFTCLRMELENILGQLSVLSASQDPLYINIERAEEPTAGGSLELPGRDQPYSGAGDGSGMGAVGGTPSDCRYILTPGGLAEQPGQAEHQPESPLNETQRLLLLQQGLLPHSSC
In words: Biochemical potency, HTRF KinEASE-TK kinase assay. Conditions: 1 nM TYRO3, 700 μM ATP. The gist of the method:
(§1)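 Enzyme (AXL 5 nM; TYRO3 or MER 1 nM final) was preincubated with compound for 1 h at RT, then reacted for 2 h at RT with 800 nM biotinylated TK substrate and 700 µM ATP in HEPES pH 7.4, MgCl2, DTT, BSA, 1% DMSO. Percent activity came from the HTRF 665/620 ratio.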
(Time-resolved FRET reads energy transfer from a long-lived donor to a nearby acceptor.)

For a further experiment, the target named is T2, recombinant human MER (Homo sapiens, UniProt Q12866).
T2 construct: purchased Invitrogen
T2 sequence (Q12866 21-999): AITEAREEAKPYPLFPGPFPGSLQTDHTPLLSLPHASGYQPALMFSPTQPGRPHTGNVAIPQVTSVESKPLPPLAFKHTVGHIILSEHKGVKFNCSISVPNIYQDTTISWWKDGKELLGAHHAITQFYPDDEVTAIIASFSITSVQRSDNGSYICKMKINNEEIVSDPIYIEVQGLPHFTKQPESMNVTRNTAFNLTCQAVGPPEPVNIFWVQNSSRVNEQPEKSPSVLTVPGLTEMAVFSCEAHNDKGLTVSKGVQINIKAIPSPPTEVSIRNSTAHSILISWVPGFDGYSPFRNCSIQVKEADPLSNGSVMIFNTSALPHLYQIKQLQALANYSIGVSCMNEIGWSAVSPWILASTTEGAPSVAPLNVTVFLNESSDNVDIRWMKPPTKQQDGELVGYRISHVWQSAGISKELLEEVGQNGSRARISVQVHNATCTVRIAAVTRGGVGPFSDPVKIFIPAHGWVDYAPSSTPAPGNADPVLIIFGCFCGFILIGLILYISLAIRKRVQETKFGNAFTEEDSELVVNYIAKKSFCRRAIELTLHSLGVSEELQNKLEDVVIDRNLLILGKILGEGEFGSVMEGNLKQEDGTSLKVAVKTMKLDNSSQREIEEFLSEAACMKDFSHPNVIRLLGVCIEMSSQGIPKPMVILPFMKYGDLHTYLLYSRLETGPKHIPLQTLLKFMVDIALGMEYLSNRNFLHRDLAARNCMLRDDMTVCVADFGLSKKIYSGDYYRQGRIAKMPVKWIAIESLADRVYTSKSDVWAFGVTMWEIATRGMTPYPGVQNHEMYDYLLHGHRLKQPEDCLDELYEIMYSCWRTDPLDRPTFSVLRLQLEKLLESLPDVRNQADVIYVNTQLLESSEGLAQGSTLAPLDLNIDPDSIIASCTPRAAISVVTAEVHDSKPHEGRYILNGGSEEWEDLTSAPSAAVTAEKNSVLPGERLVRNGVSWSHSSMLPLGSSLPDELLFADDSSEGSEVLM
The experiment can be described thus: Biochemical potency, HTRF KinEASE-TK kinase assay. Conditions: 1 nM MER, 700 μM ATP. Summed up:
as §1

Consider `Cc1cnc(-c2ccc(-c3c[nH]c4ncc(-c5ccc6c(c5)CC[C@@H](N5CCCC5)CC6)cc34)cc2)c(C)n1` [Example 59, 3,5-Dimethyl-2-(4-{5-[(7S)-7-(pyrrolidin-1-yl)-6,7,8,9-tetrahydro-5H-benzo[7]annulen-2-yl]-1H-pyrrolo[2,3-b]pyridin-3-yl}phenyl)pyrazine], for which the IC50 on recombinant human TYRO3 and on recombinant human MER was 100 to 1000 nM each time.

`Cc1cc(C)c(-c2ccc(-c3c[nH]c4ncc(-c5ccc6c(c5)CC[C@@H](N5C7COCC5C7)CC6)cc34)cc2)nn1` [Example 80, 6-[(7S)-2-{3-[4-(4,6-Dimethylpyridazin-3-yl)phenyl]-1H-pyrrolo[2,3-b]pyridin-5-yl}-6,7,8,9-tetrahydro-5H-benzo[7]annulen-7-yl]-3-oxa-6-azabicyclo[3.1.1]heptane]: the values for the IC50 on recombinant human TYRO3 and on recombinant human MER were 100 to 1000 nM and under 100 nM, respectively.

As to `Cc1cc(C)c(-c2ccc(-c3n[nH]c4ncc(-c5ccc6c(c5)CC[C@@H](N5C7COCC5C7)CC6)cc34)cc2)nn1` [Example 77, 6-[(7S)-2-{3-[4-(4,6-Dimethylpyridazin-3-yl)phenyl]-1H-pyrazolo[3,4-b]pyridin-5-yl}-6,7,8,9-tetrahydro-5H-benzo[7]annulen-7-yl]-3-oxa-6-azabicyclo[3.1.1]heptane], the IC50 (as a rule, the concentration needed to halve the response being measured) on recombinant human TYRO3 is under 100 nM; at recombinant human MER, 100 to 1000 nM.

Turning to `Clc1cccnc1-c1ccc(-c2c[nH]c3ncc(-c4ccc5c(c4)CC[C@@H](N4C6COCC4C6)CC5)cc23)cc1` [Example 43, 6-[(7S)-2-{3-[4-(3-Chloropyridin-2-yl)phenyl]-1H-pyrrolo[2,3-b]pyridin-5-yl}-6,7,8,9-tetrahydro-5H-benzo[7]annulen-7-yl]-3-oxa-6-azabicyclo[3.1.1]heptane], the IC50 at recombinant human TYRO3 and on recombinant human MER was 100 to 1000 nM throughout.

As for `Cc1cccnc1-c1ccc(-c2c[nH]c3ncc(-c4ccc5c(c4)CC[C@@H](N4C6COCC4C6)CC5)cc23)cc1` [Example 1, 6-[(7S)-2-{3-[4-(3-Methylpyridin-2-yl)phenyl]-1H-pyrrolo[2,3-b]pyridin-5-yl}-6,7,8,9-tetrahydro-5H-benzo[7]annulen-7-yl]-3-oxa-6-azabicyclo[3.1.1]heptane], the IC50 at recombinant human TYRO3 and at recombinant human MER was under 100 nM throughout.

As to `Cc1nncn1-c1ccc(-c2n[nH]c3ncc(-c4ccc5c(c4)CC[C@@H](N4C6COCC4C6)CC5)cc23)cc1` [Example 11, 6-[(7S)-2-{3-[4-(3-Methyl-4H-1,2,4-triazol-4-yl)phenyl]-1H-pyrazolo[3,4-b]pyridin-5-yl}-6,7,8,9-tetrahydro-5H-benzo[7]annulen-7-yl]-3-oxa-6-azabicyclo[3.1.1]heptane], the IC50 on recombinant human TYRO3 and on recombinant human MER was over 1000 nM each time.

For `CC(C)(C#N)c1cccnc1-c1ccc(-c2n[nH]c3ncc(-c4ccc5c(c4)CC[C@@H](N4C6COCC4C6)CC5)cc23)cc1` [Example 85, 2-Methyl-2-[2-[4-[5-[(7S)-7-(3-oxa-6-azabicyclo[3.1.1]heptan-6-yl)-6,7,8,9-tetrahydro-5H-benzo[7]annulen-3-yl]-1H-pyrazolo[3,4-b]pyridine-3-yl]phenyl]pyridine-3-yl]propanenitrile], the IC50 on recombinant human TYRO3 and at recombinant human MER was 100 to 1000 nM each time.

Take `CS(=O)(=O)c1ccccc1-c1ccc(-c2c[nH]c3ncc(-c4ccc5c(c4)CC[C@@H](N4C6COCC4C6)CC5)cc23)cc1` [Example 93, 6-[(7S)-2-(3-{2′-Methanesulfonyl-[1,1′-biphenyl]-4-yl}-1H-pyrrolo[2,3-b]pyridin-5-yl)-6,7,8,9-tetrahydro-5H-benzo[7]annulen-7-yl]-3-oxa-6-azabicyclo[3.1.1]heptane]: the IC50 on recombinant human TYRO3 and at recombinant human MER was 100 to 1000 nM each time.

On to `Fc1cccnc1-c1ccc(-c2c[nH]c3ncc(-c4ccc5c(c4)CC[C@@H](N4C6COCC4C6)CC5)cc23)cc1` [Example 42, 6-[(7S)-2-{3-[4-(3-Fluoropyridin-2-yl)phenyl]-1H-pyrrolo[2,3-b]pyridin-5-yl}-6,7,8,9-tetrahydro-5H-benzo[7]annulen-7-yl]-3-oxa-6-azabicyclo[3.1.1]heptane], for which the IC50 on recombinant human TYRO3 and on recombinant human MER was 100 to 1000 nM each time.

Consider `Fc1cc(-c2c[nH]c3ncc(-c4ccc5c(c4)CC[C@@H](N4C6COCC4C6)CC5)cc23)ccc1-c1ccccn1` [Example 40, 6-[(7S)-2-{3-[3-Fluoro-4-(pyridin-2-yl)phenyl]-1H-pyrrolo[2,3-b]pyridin-5-yl}-6,7,8,9-tetrahydro-5H-benzo[7]annulen-7-yl]-3-oxa-6-azabicyclo[3.1.1]heptane], for which the IC50 on recombinant human TYRO3 and at recombinant human MER was 100 to 1000 nM throughout.
